Experiment [1] deals with A427 cells. Kind of experiment: Cytotoxicity assay (resazurin), A427 cells, 72 hr. Type of experiment: cell-based. Particulars: Homo sapiens, A-427, read-out: Cell Viability A427 IC50. In short, it runs like this: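 Cells seeded at 1500 per well, grown 24 hr at 37° C, 5% CO2, then exposed to serially diluted compounds for 72–96 hr before 4–6 hr with 1 mM resazurin (Ex 535/Em 590 nm). Blank-subtracted signal normalised to DMSO control; percent inhibition used for IC50.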
In general terms: The colour change of resazurin is a common sign of viable cells or microbes.

Experiment [2] has as its system A427 cells. As to the kind of experiment: Cell proliferation assay (Cell Titer-Glo), A427 cells. Particulars: Homo sapiens, A-427, typically 72 hrs post-treatment. Type of experiment: cell-based. As for the experimental part:
(§1) The effects of test compounds were studied in five cell lines with various histotypes. The cancer cells (Table 4) were harvested during the logarithmic growth period and counted. Adjust cell concentrations to the appropriated number with respective medium, and add 90 μL cell suspensions to 96-well plates. After cells were seeded, the plates were shaken gently to distribute cells evenly and incubated at 37° C., 5% CO2 on day 1.
(§2) Cells were treated with test compounds at 9 concentrations within a desired concentration range (e.g. 1.5 nM-10 μM) on day 2 by series diluting the test compound stock solution (10 mM in DMSO) with culture medium. Cell viability was assessed by Cell Titer-Glo® as recommended by Promega (Cat. No.: G7572, Promega) typically 72 hrs post-treatment.
(§3) Cell viability data were plotted using GraphPad Prism (version 5, GraphPad Software, Inc., San Diego, Calif.). In addition, a nonlinear regression model with a sigmoidal dose response and variable slope within GraphPad Prism was used to calculate the IC50 value of individual test compounds.

Another experiment has as its target WEE1 kinase enzyme (Homo sapiens (Human), UniProt P30291). As to the kind of experiment: WEE1 IC50 determination, LanthaScreen Terbium labeled TR-FRET kinase assay. Particulars: WEE1 enzyme 1 nM. It is filed as biochemical. In short, it runs like this: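 Human WEE1 (1 nM) was preincubated 10 min with 3-fold diluted compounds, then ATP ([…]) and fluorescent PolyGT substrate (200 nM) were added for 1 h at room temperature in the dark. Terbium antibody/EDTA stop, TR-FRET read (ex 340, em 495/520 nm); IC50 from four-parameter logistic fit of percent inhibition.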
In general terms: In TR-FRET formats the signal depends on donor and acceptor labels being close together.

Another experiment has as its system A549 cells. As to the kind of experiment: Cytotoxicity assay (resazurin), A549 cells, 96 hr. It is filed as cell-based. Particulars: Homo sapiens, read-out: Cell Viability A549 IC50. Here is the method: (§4) A549 (CCL-185; ATCC) and A427 (HTB-53; ATCC), both lung epithelial cell lines were seeded in their respective medium (DMEM/MEM, 10569044/41090101; Gibco) at a cell count of 1500 cells per 100 μL per well in a 96 well edge plate (167425; ThermoFisher). Cells were allowed to grow at 37° C. for 24 hr in 5% CO2 environment (culture conditions) in a Nuaire incubator (humidified). Serially diluted test compounds (100 μL) within the desired testing concentration ranges were added to the culture plate were further incubated in culture conditions for 72 hr and 96 hr for A427 and A549 respectively. The experiment was terminated at the designated incubation time by replacing the medium with 100 μL of 1 mM of resazurin (R7017; Sigma) prepared in respective culture medium, and the plates were further incubated in culture conditions for 4-6 hr. Fluorescence was recorded using a multimodal plate reader (Biotek Synergy Neo) at an excitation wavelength of 535 nm and emission wavelength of 590 nm to obtain relative fluorescence units. Data analysis was done by subtracting the background fluorescence (only medium blank) value from each reading and then normalizing with the vehicle control (DMSO treated cells) to obtain percent survival/proliferation. Percent survival was then subtracted by 100 to get the percent inhibition of proliferation which was used to calculate IC50 values. Potency of compounds in other cell lines (As-Pc-1, Panc-10.05, MDAMB231, A172) was determined in an analogous manner.

A further experiment deals with A2780 cells. As to the kind of experiment: Cell proliferation assay (Cell Titer-Glo), A2780 cells. Type of experiment: cell-based. Particulars: Homo sapiens, typically 72 hrs post-treatment. As for the experimental part: as §1, §2, §3
(ATP-based viability assays read luminescence as a measure of living cells.)

In experiment [3] the test system is A427 cells. As to the kind of experiment: Cell viability in combination with cisplatin in A427 cells (resazurin). It is filed as cell-based. Particulars: Homo sapiens, A-427, 24 hr 2.5 μM cisplatin. As for the experimental part: The activity of test compounds in combination with cisplatin in A427 cells was determined. Cells were seeded in a 96 well plate at 2000 cells/well. The next day, cells were treated with 2.5 μM cisplatin or vehicle (1×PBS) and incubated in culture conditions (37° C., 5% CO2) for 24 hr. Following the incubation, culture medium was replaced with medium containing test compound and cisplatin/vehicle, and cells were further incubated in culture conditions for another 72 hr. By this procedure, cisplatin was either continued or discontinued after an initial 24-hr incubation. Addition of test compound was in concentrations needed to obtain an 8-point dose response curve, with concentrations prepared by 3-fold dilution. The assay was terminated upon addition of resazurin, incubation for 4 hr in culture conditions and measurement of fluorescence at excitation and emission wavelengths of 535 and 590 nm, respectively.

In the next experiment the test system is MDAMB231 cells. Kind of experiment: Cytotoxicity assay (resazurin), MDAMB231 cells. It is filed as cell-based. Particulars: Homo sapiens, MDA-MB-231, read-out: Cell Viability MDAMB 231 IC50. As for the experimental part:
as §4

In the next experiment the test system is Panc-10.05 cells. Kind of experiment: Cytotoxicity assay (resazurin), Panc-10.05 cells. It is filed as cell-based. Particulars: Homo sapiens, Panc1005, read-out: Cell Viability Panc 10.05 IC50. Here is the method: as §4
Another experiment deals with A172 cells. As to the kind of experiment: Cytotoxicity assay (resazurin), A172 cells. Type of experiment: cell-based. Particulars: Homo sapiens, A 172, read-out: Cell Viability A172 IC50. Here is the method:
as §4

For the next experiment, the system named is As-Pc-1 cells. Kind of experiment: Cytotoxicity assay (resazurin), As-Pc-1 cells. It is filed as cell-based. Particulars: Homo sapiens, ASPC1, read-out: Cell Viability AsPC-1 IC50. As for the experimental part: as §4
A further experiment relates to CDC2 at Tyr15 residue. Particulars: in combination with gemcitabine, carboplatin, or cisplatin; cited from earlier work.
Where [4] appears, read: then compound + cisplatin 72 hr, read-out: Cell viability IC50 in A427 cells with 2.5 μM cisplatin: 24 hr cisplatin then compound + cisplatin.
Where [5] appears, read: then compound alone 72 hr, read-out: Cell viability IC50 in A427 cells with 2.5 μM cisplatin: 24 hr cisplatin then compound.

Counter-ions that a name gives are not always drawn.

WEE1 kinase enzyme, sequence (P30291 whole entry): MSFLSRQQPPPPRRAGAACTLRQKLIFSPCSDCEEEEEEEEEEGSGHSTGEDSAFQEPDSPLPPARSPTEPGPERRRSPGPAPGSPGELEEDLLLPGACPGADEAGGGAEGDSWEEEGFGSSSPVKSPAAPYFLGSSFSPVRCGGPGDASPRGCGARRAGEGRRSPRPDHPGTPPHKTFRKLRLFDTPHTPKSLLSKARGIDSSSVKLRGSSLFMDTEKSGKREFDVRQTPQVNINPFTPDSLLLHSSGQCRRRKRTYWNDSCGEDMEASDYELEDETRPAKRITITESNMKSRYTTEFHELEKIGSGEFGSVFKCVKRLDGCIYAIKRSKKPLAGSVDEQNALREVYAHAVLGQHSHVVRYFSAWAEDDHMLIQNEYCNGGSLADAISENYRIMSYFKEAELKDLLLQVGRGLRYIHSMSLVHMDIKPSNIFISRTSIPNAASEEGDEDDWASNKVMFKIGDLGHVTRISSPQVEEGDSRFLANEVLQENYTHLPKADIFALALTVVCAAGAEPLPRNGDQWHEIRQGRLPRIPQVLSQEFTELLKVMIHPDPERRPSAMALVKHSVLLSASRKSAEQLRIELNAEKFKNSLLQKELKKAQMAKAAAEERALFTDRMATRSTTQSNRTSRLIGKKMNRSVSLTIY

As usually defined, the IC50 is the concentration needed to halve the response being measured. Turning to `O=C1c2cnc(Nc3ccc(N4CCNCC4)cc3)nc2OCN1c1c(Cl)cccc1Cl` [Example 1.5], the IC50 in the experiment with A427 cells [1] came to 3.91 µM; in the experiment with A427 cells [2], 4.29 µM; on WEE1 kinase enzyme it was 0.069 µM; with A549 cells, 3.78 µM.
For `CC1(C)CNCc2cc(Nc3ncc4c(n3)OCN(c3c(Cl)cccc3Cl)C4=O)ccc21` [Example 1.10], the IC50 with A427 cells [1] is 1.99 µM; with A427 cells [2], 1.67 µM; with A2780 cells, 3.85 µM; at WEE1 kinase enzyme it was 0.011 µM; in the experiment with A549 cells, 2.6 µM; in the experiment on A427 cells [3] (setting [4]), less than 0.014 µM. For the same molecule, in the experiment with A427 cells [3] (setting [5]), the IC50 was found to be 0.36 µM.
Consider `O=C1c2cnc(Nc3ccc(C4CCNCC4)cc3)nc2OCN1c1c(Cl)cccc1Cl` [Example 1.12], for which the IC50 turned out to be 3.58 µM in the experiment on A427 cells [1]; 9.04 µM with MDAMB231 cells; 3.43 µM with A427 cells [2]; 0.0735 µM on WEE1 kinase enzyme; 3.17 µM in the experiment on Panc-10.05 cells; 4.7 µM in the experiment with A549 cells. The IC50 in the experiment with A172 cells amounted to 7.13 µM; in the experiment on As-Pc-1 cells, 7.88 µM.
As for `O=C1c2cnc(Nc3ccc(N4CCNCC4)c(CO)c3)nc2OCN1c1c(Cl)cccc1Cl` [Example 1.16], the IC50 with A427 cells [1] is 2.13 µM; in the experiment on A427 cells [2], 3.04 µM; on WEE1 kinase enzyme it was 0.049 µM; in the experiment with A549 cells, 3.98 µM; with A427 cells [3] (setting [4]) it was less than 0.014 µM; in the experiment on A427 cells [3] (setting [5]), 0.18 µM.
For the molecule `CN1CCN(c2ccc(Nc3ncc4c(n3)OCN(c3c(Cl)cccc3Cl)C4=O)cc2CO)CC1` [Example 1.20], the half-maximal inhibitory concentration (IC50) in the experiment on A427 cells [1] came out at 5.5 µM; in the experiment with A427 cells [2], 3.64 µM; on WEE1 kinase enzyme it was 0.048 µM; in the experiment on A549 cells it was 6.02 µM.
With `O=C1c2cnc(Nc3ccc4c(c3)CNCC4)nc2OCN1c1c(Cl)cccc1Cl` [Example 1.24], the IC50 with A427 cells [1] stood at 2.96 µM; in the experiment with A427 cells [2], 2.85 µM; at WEE1 kinase enzyme it was 0.035 µM; in the experiment with A549 cells, 6.45 µM; in the experiment with A427 cells [3] (setting [4]) it was 0.06 µM; in the experiment with A427 cells [3] (setting [5]), 0.12 µM.
As for `O=C1c2cnc(Nc3ccc(N4CCNCC4)cc3)nc2OCN1c1c(F)cccc1Cl` [Example 1.27], the IC50 is 6.97 µM in the experiment on A427 cells [1], 7.75 µM in the experiment on A427 cells [2], 0.052 µM at WEE1 kinase enzyme and 4.39 µM in the experiment with A549 cells.
As for `O=C1c2cnc(Nc3ccc4c(c3)CNCC43CC3)nc2OCN1c1c(Cl)cccc1Cl` [Example 1.51, 3-(2,6-dichlorophenyl)-7-(2′,3′-dihydro-1′H-spiro[cyclopropane-1,4′-isoquinoline]-7′-ylamino)-2H-pyrimido[5,4-e][1,3]oxazin-4(3H)-one], the IC50 is 3.04 µM in the experiment with A427 cells [1]; 8.76 µM in the experiment on MDAMB231 cells; 0.011 µM at WEE1 kinase enzyme; 3.34 µM in the experiment with Panc-10.05 cells; 6.45 µM in the experiment on A549 cells; 8 µM with A172 cells. Moreover, the IC50 in the experiment on As-Pc-1 cells was found to be 3.21 µM.
In the case of `COc1cc(Nc2ncc3c(n2)OCN(c2c(Cl)cccc2Cl)C3=O)ccc1N1CCNCC1` [Example 1.53, 3-(2,6-dichlorophenyl)-7-(3-methoxy-4-(piperazin-1-yl)phenylamino)-2H-pyrimido[5,4-e][1,3]oxazin-4(3H)-one dihydrochloride], the IC50 is 3.61 µM in the experiment on A427 cells [1]; 10.5 µM in the experiment with MDAMB231 cells; 0.033 µM at WEE1 kinase enzyme; 9.34 µM with Panc-10.05 cells; 4.72 µM in the experiment on A549 cells; 9.68 µM in the experiment with A172 cells. Moreover, the IC50 in the experiment with As-Pc-1 cells was 2.41 µM.
For the molecule `N#Cc1cc(Nc2ncc3c(n2)OCN(c2c(Cl)cccc2Cl)C3=O)ccc1N1CCNCC1` [Example 1.55, 5-(3-(2,6-dichlorophenyl)-4-oxo-3,4-dihydro-2H-pyrimido[5,4-e][1,3]oxazin-7-ylamino)-2-(piperazin-1-yl)benzonitrile], the IC50 in the experiment on A427 cells [1] was 2.32 µM; with A2780 cells, 6.8 µM; on WEE1 kinase enzyme it was 0.106 µM; with A549 cells, 1.59 µM; with A427 cells [3] (setting [4]), less than 0.014 µM; with A427 cells [3] (setting [5]) it was 0.53 µM.
Turning to `O=C1c2cnc(Nc3ccc(N4CCCC4)cc3)nc2OCN1c1c(Cl)cccc1Cl` [Example 1.56, 3-(2,6-dichlorophenyl)-7-(4-(pyrrolidin-1-yl)phenylamino)-2H-pyrimido[5,4-e][1,3]oxazin-4(3H)-one], the IC50 is 10.5 µM in the experiment on A427 cells [1], greater than 5 µM on WEE1 kinase enzyme and 1.86 µM in the experiment on A549 cells.
The like results for `CNCC(=O)N1CCN(c2ccc(Nc3ncc4c(n3)OCN(c3c(Cl)cccc3Cl)C4=O)cc2)CC1` [Example 1.57, 3-(2,6-dichlorophenyl)-7-(4-(4-(2-(methylamino)acetyl)piperazin-1-yl)phenylamino)-2H-pyrimido[5,4-e][1,3]oxazin-4(3H)-one hydrochloride] were, in that order, 4.86 µM, 0.101 µM and 6.23 µM.
For `O=C1c2cnc(Nc3ccc(N4CCN(CCO)CC4)cc3)nc2OCN1c1c(Cl)cccc1Cl` [Example 1.58, 3-(2,6-dichlorophenyl)-7-(4-(4-(2-hydroxyethyl)piperazin-1-yl)phenylamino)-2H-pyrimido[5,4-e][1,3]oxazin-4(3H)-one] the same measures were 7.12 µM, 0.234 µM and 12.3 µM.
Consider `Cc1cc(Nc2ncc3c(n2)OCN(c2c(Cl)cccc2Cl)C3=O)ccc1C1CCNCC1` [Example 1.60], for which the IC50 in the experiment with A427 cells [1] came out at 2.58 µM; in the experiment on MDAMB231 cells, 5.34 µM; at WEE1 kinase enzyme it was 0.0435 µM; in the experiment on Panc-10.05 cells, 2.85 µM; with A549 cells it was 8.34 µM; in the experiment with A172 cells, 4.8 µM. Besides, the IC50 with As-Pc-1 cells was found to be 2.91 µM.
For `CC1(C)NCCc2cc(Nc3ncc4c(n3)OCN(c3c(Cl)cccc3Cl)C4=O)ccc21` [Example 1.227], the IC50 in the experiment with A427 cells [1] amounted to 2.2 µM; in the experiment on MDAMB231 cells it was 8.78 µM; at WEE1 kinase enzyme it was 0.021 µM; in the experiment on Panc-10.05 cells, 4.93 µM; in the experiment with A549 cells, 9.04 µM; with A172 cells it was 6.62 µM. The IC50 in the experiment with As-Pc-1 cells stood at 2.94 µM.
On to `C=CCn1c(=O)c2cnc(Nc3ccc(N4CCN(C)CC4)cc3)nc2n1-c1cccc(C(C)(C)O)n1` [MK-1775, 1,2-allyl-1-(6-(2-hydroxypropan-2-yl)pyridin-2-yl)-6-((4-(4methylpiperazin-1-yl)phenyl)amino)-1H-pyrazolo[3,4-d]pyrimidin-3 (2H)-one], for which the “Phosphorylation of CDC2 at Tyr15” value in the experiment on CDC2 at Tyr15 residue is on record as “abolished the phosphorylation of CDC2 at Tyr15 residue”.
